Assay results taken from patent publication US6037447A, “Glycopeptide compounds” (priority 1998, dated 2000).

system: Staphylococcus aureus 446; test: Standard broth micro-dilution MIC, Staphylococcus aureus 446; assay type: cell-based; settings: not given
Method: (§1) The minimal inhibitory concentrations (MICs) were determined using a standard broth micro-dilution assay.

Row | Substance | MIC [µg/mL]
1 | 1,3-propanediyl-bis-[(oxy-4,1-phenylene)-methylene]-bis-[A82846B] [Compound 14] | 4
2 | N^4 -(4-(8-(p-formylphenoxy)-n-octyloxy)benzyl)A82846B [Compound 47] | 8
3 | N^4 -(4-(12-(p-formylphenoxy)-n-dodecyloxy)benzyl)A82846B [Compound 48] | > 64

system: Staphylococcus aureus 489; test: Standard broth micro-dilution MIC, Staphylococcus aureus 489; assay type: cell-based; settings: not given
Method: as §1

Row | Substance | MIC [µg/mL]
4 | 1,3-propanediyl-bis-[(oxy-4,1-phenylene)-methylene]-bis-[A82846B] [Compound 14] | 1
5 | N^4 -(4-(8-(p-formylphenoxy)-n-octyloxy)benzyl)A82846B [Compound 47] | 4
6 | N^4 -(4-(12-(p-formylphenoxy)-n-dodecyloxy)benzyl)A82846B [Compound 48] | 32

system: Staphylococcus aureus 447; test: Standard broth micro-dilution MIC, Staphylococcus aureus 447; assay type: cell-based; settings: not given
Method: as §1

Row | Substance | MIC [µg/mL]
7 | 1,3-propanediyl-bis-[(oxy-4,1-phenylene)-methylene]-bis-[A82846B] [Compound 14] | 16
8 | N^4 -(4-(8-(p-formylphenoxy)-n-octyloxy)benzyl)A82846B [Compound 47] | 8
9 | N^4 -(4-(12-(p-formylphenoxy)-n-dodecyloxy)benzyl)A82846B [Compound 48] | > 64

system: Staphylococcus aureus X400; test: Standard broth micro-dilution MIC, Staphylococcus aureus X400; assay type: cell-based; settings: not given
Method: as §1

Row | Substance | MIC [µg/mL]
10 | 1,3-propanediyl-bis-[(oxy-4,1-phenylene)-methylene]-bis-[A82846B] [Compound 14] | 2
11 | N^4 -(4-(8-(p-formylphenoxy)-n-octyloxy)benzyl)A82846B [Compound 47] | 8
12 | N^4 -(4-(12-(p-formylphenoxy)-n-dodecyloxy)benzyl)A82846B [Compound 48] | 32

system: Staphylococcus aureus X778; test: Standard broth micro-dilution MIC, Staphylococcus aureus X778; assay type: cell-based; settings: not given
Method: as §1

Row | Substance | MIC [µg/mL]
13 | 1,3-propanediyl-bis-[(oxy-4,1-phenylene)-methylene]-bis-[A82846B] [Compound 14] | 1
14 | N^4 -(4-(8-(p-formylphenoxy)-n-octyloxy)benzyl)A82846B [Compound 47] | 8
15 | N^4 -(4-(12-(p-formylphenoxy)-n-dodecyloxy)benzyl)A82846B [Compound 48] | 32

system: Staphylococcus aureus 491; test: Standard broth micro-dilution MIC, Staphylococcus aureus 491; assay type: cell-based; settings: not given
Method: as §1

Row | Substance | MIC [µg/mL]
16 | 1,3-propanediyl-bis-[(oxy-4,1-phenylene)-methylene]-bis-[A82846B] [Compound 14] | 0.25
17 | N^4 -(4-(8-(p-formylphenoxy)-n-octyloxy)benzyl)A82846B [Compound 47] | 16
18 | N^4 -(4-(12-(p-formylphenoxy)-n-dodecyloxy)benzyl)A82846B [Compound 48] | 32

system: Staphylococcus aureus S13E; test: not given; assay type: cell-based; settings: not given
Method: as §1

Row | Substance | MIC [µg/mL]
19 | 1,3-propanediyl-bis-[(oxy-4,1-phenylene)-methylene]-bis-[A82846B] [Compound 14] | 2
20 | N^4 -(4-(8-(p-formylphenoxy)-n-octyloxy)benzyl)A82846B [Compound 47] | 16
21 | N^4 -(4-(12-(p-formylphenoxy)-n-dodecyloxy)benzyl)A82846B [Compound 48] | 32

system: Staphylococcus aureus SA1199; test: Standard broth micro-dilution MIC, Staphylococcus aureus SA1199; assay type: cell-based; settings: not given
Method: as §1

Row | Substance | MIC [µg/mL]
22 | 1,3-propanediyl-bis-[(oxy-4,1-phenylene)-methylene]-bis-[A82846B] [Compound 14] | 4
23 | N^4 -(4-(8-(p-formylphenoxy)-n-octyloxy)benzyl)A82846B [Compound 47] | 16
24 | N^4 -(4-(12-(p-formylphenoxy)-n-dodecyloxy)benzyl)A82846B [Compound 48] | 32

system: Staphylococcus aureus SA1199A; test: Standard broth micro-dilution MIC, Staphylococcus aureus SA1199A; assay type: cell-based; settings: not given
Method: as §1

Row | Substance | MIC [µg/mL]
25 | 1,3-propanediyl-bis-[(oxy-4,1-phenylene)-methylene]-bis-[A82846B] [Compound 14] | 0.125
26 | N^4 -(4-(8-(p-formylphenoxy)-n-octyloxy)benzyl)A82846B [Compound 47] | 0.5
27 | N^4 -(4-(12-(p-formylphenoxy)-n-dodecyloxy)benzyl)A82846B [Compound 48] | 16

system: Staphylococcus aureus SA119913; test: Standard broth micro-dilution MIC, Staphylococcus aureus SA119913; assay type: cell-based; settings: not given
Method: as §1

Row | Substance | MIC [µg/mL]
28 | 1,3-propanediyl-bis-[(oxy-4,1-phenylene)-methylene]-bis-[A82846B] [Compound 14] | 2
29 | N^4 -(4-(8-(p-formylphenoxy)-n-octyloxy)benzyl)A82846B [Compound 47] | 8
30 | N^4 -(4-(12-(p-formylphenoxy)-n-dodecyloxy)benzyl)A82846B [Compound 48] | 32

system: Staphylococcus haemolyticus 105; test: Standard broth micro-dilution MIC, Staphylococcus haemolyticus 105; assay type: cell-based; settings: not given
Method: as §1

Row | Substance | MIC [µg/mL]
31 | 1,3-propanediyl-bis-[(oxy-4,1-phenylene)-methylene]-bis-[A82846B] [Compound 14] | 4
32 | N^4 -(4-(8-(p-formylphenoxy)-n-octyloxy)benzyl)A82846B [Compound 47] | 8
33 | N^4 -(4-(12-(p-formylphenoxy)-n-dodecyloxy)benzyl)A82846B [Compound 48] | > 64

system: Staphylococcus haemolyticus 415; test: Standard broth micro-dilution MIC, Staphylococcus haemolyticus 415; assay type: cell-based; settings: not given
Method: as §1

Row | Substance | MIC [µg/mL]
34 | 1,3-propanediyl-bis-[(oxy-4,1-phenylene)-methylene]-bis-[A82846B] [Compound 14] | 16
35 | N^4 -(4-(8-(p-formylphenoxy)-n-octyloxy)benzyl)A82846B [Compound 47] | 16
36 | N^4 -(4-(12-(p-formylphenoxy)-n-dodecyloxy)benzyl)A82846B [Compound 48] | > 64

system: Staphylococcus epidermidis 270; test: Standard broth micro-dilution MIC, Staphylococcus epidermidis 270; assay type: cell-based; settings: not given
Method: as §1

Row | Substance | MIC [µg/mL]
37 | 1,3-propanediyl-bis-[(oxy-4,1-phenylene)-methylene]-bis-[A82846B] [Compound 14] | 8
38 | N^4 -(4-(8-(p-formylphenoxy)-n-octyloxy)benzyl)A82846B [Compound 47] | 4
39 | N^4 -(4-(12-(p-formylphenoxy)-n-dodecyloxy)benzyl)A82846B [Compound 48] | > 64

system: Enterococcus faecium 180; test: Standard broth micro-dilution MIC, Enterococcus faecium 180; assay type: cell-based; settings: not given
Method: as §1

Row | Substance | MIC [µg/mL]
40 | 1,3-propanediyl-bis-[(oxy-4,1-phenylene)-methylene]-bis-[A82846B] [Compound 14] | 0.25
41 | N^4 -(4-(8-(p-formylphenoxy)-n-octyloxy)benzyl)A82846B [Compound 47] | 0.5
42 | N^4 -(4-(12-(p-formylphenoxy)-n-dodecyloxy)benzyl)A82846B [Compound 48] | 64

system: Enterococcus faecium 180-1; test: Standard broth micro-dilution MIC, Enterococcus faecium 180-1; assay type: cell-based; settings: not given
Method: as §1

Row | Substance | MIC [µg/mL]
43 | 1,3-propanediyl-bis-[(oxy-4,1-phenylene)-methylene]-bis-[A82846B] [Compound 14] | ≤ 0.06
44 | N^4 -(4-(8-(p-formylphenoxy)-n-octyloxy)benzyl)A82846B [Compound 47] | 1
45 | N^4 -(4-(12-(p-formylphenoxy)-n-dodecyloxy)benzyl)A82846B [Compound 48] | 8

system: Enterococcus faecalis 2041; test: Standard broth micro-dilution MIC, Enterococcus faecalis 2041; assay type: cell-based; settings: not given
Method: as §1

Row | Substance | MIC [µg/mL]
46 | 1,3-propanediyl-bis-[(oxy-4,1-phenylene)-methylene]-bis-[A82846B] [Compound 14] | 0.25
47 | N^4 -(4-(8-(p-formylphenoxy)-n-octyloxy)benzyl)A82846B [Compound 47] | 2
48 | N^4 -(4-(12-(p-formylphenoxy)-n-dodecyloxy)benzyl)A82846B [Compound 48] | 8

system: Enterococcus faecalis 276; test: Standard broth micro-dilution MIC, Enterococcus faecalis 276; assay type: cell-based; settings: not given
Method: as §1

Row | Substance | MIC [µg/mL]
49 | 1,3-propanediyl-bis-[(oxy-4,1-phenylene)-methylene]-bis-[A82846B] [Compound 14] | 0.5
50 | N^4 -(4-(8-(p-formylphenoxy)-n-octyloxy)benzyl)A82846B [Compound 47] | 8
51 | N^4 -(4-(12-(p-formylphenoxy)-n-dodecyloxy)benzyl)A82846B [Compound 48] | 32

system: Enterococcus gallinarum 245; test: Standard broth micro-dilution MIC, Enterococcus gallinarum 245; assay type: cell-based; settings: not given
Method: as §1

Row | Substance | MIC [µg/mL]
52 | 1,3-propanediyl-bis-[(oxy-4,1-phenylene)-methylene]-bis-[A82846B] [Compound 14] | 0.06
53 | N^4 -(4-(8-(p-formylphenoxy)-n-octyloxy)benzyl)A82846B [Compound 47] | 16
54 | N^4 -(4-(12-(p-formylphenoxy)-n-dodecyloxy)benzyl)A82846B [Compound 48] | > 64

system: Haemophilus influenzae RD; test: Standard broth micro-dilution MIC, Haemophilus influenzae RD; assay type: cell-based; settings: not given
Method: as §1

Row | Substance | MIC [µg/mL]
55 | 1,3-propanediyl-bis-[(oxy-4,1-phenylene)-methylene]-bis-[A82846B] [Compound 14] | > 64
56 | N^4 -(4-(8-(p-formylphenoxy)-n-octyloxy)benzyl)A82846B [Compound 47] | > 64
57 | N^4 -(4-(12-(p-formylphenoxy)-n-dodecyloxy)benzyl)A82846B [Compound 48] | > 64

system: Escherichia coli EC14; test: Standard broth micro-dilution MIC, Escherichia coli EC14; assay type: cell-based; settings: not given
Method: as §1

Row | Substance | MIC [µg/mL]
58 | 1,3-propanediyl-bis-[(oxy-4,1-phenylene)-methylene]-bis-[A82846B] [Compound 14] | > 64
59 | N^4 -(4-(8-(p-formylphenoxy)-n-octyloxy)benzyl)A82846B [Compound 47] | > 64
60 | N^4 -(4-(12-(p-formylphenoxy)-n-dodecyloxy)benzyl)A82846B [Compound 48] | > 64

system: Streptococcus pyogenes C203; test: Standard broth micro-dilution MIC, Streptococcus pyogenes C203; assay type: cell-based; settings: not given
Method: as §1

Row | Substance | MIC [µg/mL]
61 | 1,3-propanediyl-bis-[(oxy-4,1-phenylene)-methylene]-bis-[A82846B] [Compound 14] | 0.06
62 | N^4 -(4-(8-(p-formylphenoxy)-n-octyloxy)benzyl)A82846B [Compound 47] | ≤ 0.06
63 | N^4 -(4-(12-(p-formylphenoxy)-n-dodecyloxy)benzyl)A82846B [Compound 48] | 2

system: Streptococcus pneumoniae P1; test: Standard broth micro-dilution MIC, Streptococcus pneumoniae P1; assay type: cell-based; settings: not given
Method: as §1

Row | Substance | MIC [µg/mL]
64 | 1,3-propanediyl-bis-[(oxy-4,1-phenylene)-methylene]-bis-[A82846B] [Compound 14] | 0.06
65 | N^4 -(4-(8-(p-formylphenoxy)-n-octyloxy)benzyl)A82846B [Compound 47] | ≤ 0.06
66 | N^4 -(4-(12-(p-formylphenoxy)-n-dodecyloxy)benzyl)A82846B [Compound 48] | 4

system: vancomycin-resistant enterococci; test: In Vitro Activity Against Enterococci, vancomycin-resistant strains; assay type: cell-based; settings: representative vancomycin-resistant enterococci (Enterococcus faecium and Enterococcus faecalis)
Method: as §1

Row | Substance | mean geometric MIC, Vancomycin Resistant Strains [µg/mL]
67 | 1,3-propanediyl-bis-[(oxy-4,1-phenylene)-methylene]-bis-[A82846B] [Compound 14] | > 64
68 | N^4 -(4-(8-(p-formylphenoxy)-n-octyloxy)benzyl)A82846B [Compound 47] | 2.8
69 | N^4 -(4-(12-(p-formylphenoxy)-n-dodecyloxy)benzyl)A82846B [Compound 48] | 8.0

system: vancomycin-sensitive enterococci; test: In Vitro Activity Against Enterococci, vancomycin-sensitive strains; assay type: cell-based, Enterococcus faecium and Enterococcus faecalis; settings: representative vancomycin-sensitive enterococci (Enterococcus faecium and Enterococcus faecalis)
Method: as §1

Row | Substance | mean geometric MIC, Vancomycin Sensitive Strains [µg/mL]
70 | 1,3-propanediyl-bis-[(oxy-4,1-phenylene)-methylene]-bis-[A82846B] [Compound 14] | 1.0
71 | N^4 -(4-(8-(p-formylphenoxy)-n-octyloxy)benzyl)A82846B [Compound 47] | 1.0
72 | N^4 -(4-(12-(p-formylphenoxy)-n-dodecyloxy)benzyl)A82846B [Compound 48] | 5.2
